Tested on: androgen receptor (AR)
Experiment: AR ELISA assay (androgen receptor degradation)
Assay type: cell-based
Conditions: LNCaP and/or VCaP cells, 5 hours drug treatment; for AR Dmax: % degraded
Protocol: 5. AR ELISA Assay Protocol
Compounds were evaluated in this assay in LNCaP and/or VCaP cells utilizing similar protocols. The protocols used with VCaP cells are described below. The androgen receptor ELISA assay was performed using PathScan AR Sandwich ELISA (Cell Signaling Catalog #12850) according to the following assay steps:
VCaP cells were seeded at 40,000 cells/well at a volume of 100 µL/well in VCaP assay medium [Phenol red free RPMI (Gibco Cat #11835-030); 5% Charcoal Stripped (Dextran treated) FBS (Omega Scientific, Cat #FB-04); 1% penstrep (Life Technologies, Gibco Cat #: 10378-016)] in Corning 3904 plates. The cells were incubated for a minimum of 3 days. Cells were dosed with PROTACs diluted in 0.01% DMSO and the drug treatment was allowed for 5 hours.
AR ELISA (Cell Signaling) was performed as follows. 1×Cell Signaling Cell lysis buffer was made (Catalogue #9803; comes with the kit). Media from the treated wells is aspirated, and 100 μL 1×cell lysis buffer/well is added. The cells were placed on a shaker for 10 minutes at 4° C. Twenty microliters of lysate was transferred to 100 μl of Diluent in ELISA plate ([…]-0.075 μg/ml). The lysate-diluent mixture was shaken for 30 minutes at 37° C. Allow mouse AR antibody, anti-mouse antibody, TMB, and STOP solution to come to room temperature. The 1×ELISA buffer included in kit was made and loaded in the reservoir. Media from the plates was discarded, the ELISA plate tapped hard on paper towel, and washed 4×200 μl ELISA wash buffer using a plate washer.
One-hundred (100) μL/well of mouse AR detection Ab was added; the plates were covered and shaken at 37° C. for 1 hour; media was discarded from the plates, the plates were tapped on a paper towel, washed 4× with 200 μL ELISA wash buffer with a plate washer.
One-hundred (100) μL/well of anti-mouse—HRP conjugated Ab (comes with the kit) was added; the plates were covered and shaken at 37° C. for 30 minutes; the TMB reagent was allowed to come to room temperature; the media was discard from the plate, the plates were tapped on paper towel, washed 4× with 200 μL of ELISA wash buffer; the plates were tapped the plates on paper towel. One-hundred (100) μL of TMB was added and the plates shaken for 2 minutes—while watching for color development. One-hundred (100) μL Stop solution was added when light blue color developed. Plates were shaken and read at 450 nm.

Question: CC1(C)[C@H](NC(=O)c2ccc(N3CCN(CCCCCOc4ccc5c(-n6ccc(=O)[nH]c6=O)cncc5c4)CC3)nc2)C(C)(C)[C@H]1Oc1ccc(C#N)c(Cl)c1 [PROTAC-79, N-((1r,3r)-3-(3-chloro-4-cyanophenoxy)-2,2,4,4-tetramethylcyclobutyl)-6-(4-(5-((4-(2,4-dioxo-3,4-dihydropyrimidin-1(2H)-yl)isoquinolin-7-yl)oxy)pentyl)piperazin-1-yl)nicotinamide] was tested. Which “AR Dmax” value did it give?
Answer: C (C <= 50)

Question: And the DC50?
Answer: 1 to 10 nM

Question: How did the “AR Dmax” value turn out when CC1(C)[C@H](NC(=O)c2ccc(N3CCN(CCCCCOc4ccc(C(=O)NC5CCC(=O)NC5=O)nc4)CC3)nc2)C(C)(C)[C@H]1Oc1ccc(C#N)c(Cl)c1 (mixture of isomers) [PROTAC-27, rac-5-((5-(4-(5-(((1r,3r)-3-(3-chloro-4-cyanophenoxy)-2,2,4,4-tetramethylcyclobutyl)carbamoyl)pyridin-2-yl)piperazin-1-yl)pentyl)oxy)-N-(2,6-dioxopiperidin-3-yl)picolinamide] was run?
Answer: B (50 < B <= 75)

Question: What about the DC50 of the same compound?
Answer: 1 to 10 nM

Question: Which “AR Dmax” value does the source give for N#Cc1ccc(O[C@H]2CC[C@H](NC(=O)c3ccc(N4CCC(CN5CCN(c6cc(C(=O)NC7CCC(=O)NC7=O)c(C(=O)O)cc6F)CC5)CC4)nn3)CC2)cc1Cl (some centres unmarked) [PROTAC-58, 4-(4-((1-(6-(((1r,4r)-4-(3-chloro-4-cyanophenoxy)cyclohexyl)carbamoyl)pyridazin-3-yl)piperidin-4-yl)methyl)piperazin-1-yl)-2-((2,6-dioxopiperidin-3-yl)carbamoyl)-5-fluorobenzoic acid] here?
Answer: B (50 < B <= 75)

Question: And the DC50?
Answer: 10 to 100 nM

Question: For CC1(C)[C@H](NC(=O)c2ccc(N3CCC(CN4CCN(c5ccc6c(c5)C(=O)N(c5ccc(O)[nH]c5=O)C6=O)CC4)CC3)cc2)C(C)(C)[C@H]1Oc1ccc(C#N)c(Cl)c1 [PROTAC-45, N-((1r,3r)-3-(3-chloro-4-cyanophenoxy)-2,2,4,4-tetramethylcyclobutyl)-4-(4-((4-(2-(6-hydroxy-2-oxo-1,2-dihydropyridin-3-yl)-1,3-dioxoisoindolin-5-yl)piperazin-1-yl)methyl)piperidin-1-yl)benzamide], which “AR Dmax” value is on record?
Answer: C (C <= 50)

Question: And the DC50?
Answer: ≥ 100 nM

Question: Which results are given for CC1(C)[C@H](NC(=O)c2ccc(N3CCN(CCCCCOc4ccc5c(c4)S(=O)(=O)N(C4CCC(=O)NC4=O)C5=O)CC3)nc2)C(C)(C)[C@H]1Oc1ccc(C#N)c(Cl)c1 (some centres unmarked) [PROTAC-33, N-((1r,3r)-3-(3-chloro-4-cyanophenoxy)-2,2,4,4-tetramethylcyclobutyl)-6-(4-(5-((2-(2,6-dioxopiperidin-3-yl)-1,1-dioxido-3-oxo-2,3-dihydrobenzo[d]isothiazol-6-yl)oxy)pentyl)piperazin-1-yl)nicotinamide]?
Answer: AR Dmax: B (50 < B <= 75); DC50: 1 to 10 nM

Question: CC1(C)[C@H](NC(=O)c2ccc(N3CCC(CN4CCN(c5cnn(C6CCC(=O)NC6=O)c(=O)c5)CC4)CC3)cc2)C(C)(C)[C@H]1Oc1ccc(C#N)c(Cl)c1 (mixture of isomers) [PROTAC-62, rac-N-((1r,3r)-3-(3-chloro-4-cyanophenoxy)-2,2,4,4-tetramethylcyclobutyl)-4-(4-((4-(1-(2,6-dioxopiperidin-3-yl)-6-oxo-1,6-dihydropyridazin-4-yl)piperazin-1-yl)methyl)piperidin-1-yl)benzamide] was tested. Which “AR Dmax” value did it give?
Answer: B (50 < B <= 75)

Question: What about the DC50 of the same compound?
Answer: < 1 nM

Question: How did the “AR Dmax” value turn out when CCN(C(=O)c1ccc(OCCCCCN2CCN(c3ccc(C(=O)N[C@H]4C(C)(C)[C@H](Oc5ccc(C#N)c(Cl)c5)C4(C)C)cn3)CC2)cc1)C1CCC(=O)NC1=O (mixture of isomers) [PROTAC-48, rac-N-((1r,3r)-3-(3-chloro-4-cyanophenoxy)-2,2,4,4-tetramethylcyclobutyl)-6-(4-(5-(4-((2,6-dioxopiperidin-3-yl)(ethyl)carbamoyl)phenoxy)pentyl)piperazin-1-yl)nicotinamide] was run?
Answer: C (C <= 50)

Question: And the DC50?
Answer: ≥ 100 nM

Source: patent publication US20250313547A1, “CEREBLON LIGANDS AND BIFUNCTIONAL COMPOUNDS COMPRISING THE SAME” (Arvinas Operations, Inc., priority 2017, published 2025)
